Results published in patent publication US7981875B2, “2″ oxo-voruscharin and derivatives thereof” (priority 2002, dated 2011).

Tests used:
[1] = test system: HCT-15 human cancer cells; assay: Cell cycle kinetics by flow cytometry (propidium iodide); format: cell-based; set-up: key to Effect on cell cycle kinetics, G0/G1 / Effect on cell cycle kinetics, S / Effect on cell cycle kinetics, G2/M: n.s. means no significant; ** means highly significant; *** very highly significant
Procedure: (§1) Cell lines were seeded in flasks (25 cm^2 area) containing 7 ml of culture medium. After 48 hours incubation at 37° C. the cell culture medium was replaced by a fresh medium in which the substance to be tested had been dissolved at the different concentrations required. Uscharin and 2″ oxo-voruscharin were tested at concentrations, which kill 50% and 30% of the cell population, represented by the IC50 and IC30 values, respectively. After 24 or 72 hours of treatment the cells were harvested in suspension, washed in Phosphate Buffer Saline (PBS) at 4° C. and permeabilized with 70% ethanol (at 4° C.) overnight at −20° C. The cells were then washed with PBS and incubated with propidium iodide solution (80 μg/ml) for 30 minutes at 37° C. and afterward at 4° C. overnight. Ribonuclease A (3% V/V) was added to the PI solution to break doubled-stranded RNA. The portrait of the cell cycle was established for each sample. Software incorporated into the flow cytometer was used to define precisely the percentage of cells in the different cell cycle phases. Each cell cycle phase was reported in terms of peak surface and calculated as a percentage. The surface of the entire cell cycle was 100%. Each experiment was carried out 3 times. The mean percentage of each different phase and the standard error of the related mean were calculated. Each cell cycle phase of a given condition was compared with the same cell cycle phase of control. The non-treated cells constituted control.
(§2) Uscharin and 2″ oxo-voruscharin are highly toxic to human tumor cell lines. The concentrations used in the flow cytometry experiments were chosen in accordance with the MTT results (example 2). Three human cancer cell lines, Hs683, J82, and HCT-15 were tested and doses that killed 30 and 50 percent of the cells were applied to investigate whether uscharin and 2″ oxo-voruscharin promoted an accumulation in one of the cell cycle phases when the cell cultures were treated for 24 or 72 hours with increasing concentrations of the compounds. The IC50 and IC30 values for uscharin and 2″ oxo-voruscharin corresponding to the three tested cell lines are represented in Table E.

Hs683 human cancer cells = assay: as above; format: cell-based; set-up: key to Effect on cell cycle kinetics, G0/G1 / Effect on cell cycle kinetics, S / Effect on cell cycle kinetics, G2/M: n.s. means no significant; ** means highly significant; *** very highly significant
Procedure: as §1, §2

J82 human cancer cells = assay: as above; format: cell-based; set-up: key to Effect on cell cycle kinetics, G0/G1 / Effect on cell cycle kinetics, S / Effect on cell cycle kinetics, G2/M: n.s. means no significant; ** means highly significant; *** very highly significant
Procedure: as §1, §2

[2] = test system: MCF-7-TD5 (breast cancer); assay: Sub-cutaneous xenograft breast cancer model; format: in vivo, mice
Procedure: (§3) Three types of results were obtained with in vivo anti-tumor pharmacology: 1) the cumulative toxicity of chemotherapeutic administrations through recording the weights of the tumor-bearing mice during treatment, 2) the actual anti-tumor effect exerted at tumor growth level. If the tumor models are grafted subcutaneously (s.c.), tumor size is measured three times a week by means of a caliper and expressed as an area (mm^2) by multiplying together the two largest perpendicular diameters, and 3) the gain in survival for the animals treated, which is evaluated by means of the T/C index. This index is the ratio between the median survival time of the group of treated animals (T) and that of the control group. The drug is considered to be active if the T/C value is above 130% (P<0.05), and toxic for a value lower than 70%.
The antitumoral activity of compound B was evaluated in different xenografted models: sub-cutanous model: MCF-7-TD5 (breast cancer) and C32 (melanoma cancer) and orthotopic model: A549 (lung cancer).
The MCF-7-TD5 model described herein is a […] form of MCF-7 transfected with v-Ha-ras oncogene and with a neomycin-resistance gene. Compound B was assayed at MTD/8 (10 mg/kg) and MTD/16 (5 mg/kg) five times a week.
After s.c. injection of MCF-7-TD5 into untreated female nu/nu mice, the MCF-7 TD5 produced tumors after latency periods of 7 to 18 weeks. […] No oestradiol was used during the experiments described in this example.

[3] = test system: Capan-2 orthotopic xenograft; assay: Orthotopic pancreatic cancer model; format: in vivo, nude mice
Procedure: as §3
In addition to the xenografted models of Example 6, the antitumoral activity of compound B was evaluated in orthotopic xenografted models PC3 (Prostate) and Capan2 (Pancreas).
Compound B was further evaluated on in vivo orthotopic Capan-2 pancreatic cancer model by measurement of T/C index, as described in Example 6 of the specification.

CC1CC2(NC(=O)CS2)C2(O)OC3CC4(C=O)C(CCC5C4CCC4(C)C(C6=CC(=O)OC6)CCC54O)CC3OC2O1 (centres unmarked) [2″oxo-voruscharin, 2″ oxo-voruscharin]
Effect on cell cycle kinetics, G0/G1 ([1]; HCT-15, 24 h): n.s. | Effect on cell cycle kinetics, G2/M ([1]; HCT-15, 24 h): n.s. | Effect on cell cycle kinetics, S ([1]; HCT-15, 24 h): n.s. | Effect on cell cycle kinetics, G0/G1 ([1]; HCT-15, 72 h): n.s. | Effect on cell cycle kinetics, G2/M ([1]; HCT-15, 72 h): n.s. | Effect on cell cycle kinetics, S ([1]; HCT-15, 72 h): *** | cell cycle, S-phase ([1]; HCT-15, 72 hours, highest concentration tested (4.3×10^−8 M uscharin, 1.2×10^−8 M 2″oxo-voruscharin)): accumulation in S-phase | cell cycle, G2/M phase (Hs683 human cancer cells; Hs683, 8.3×10^−9 M after 24 hours and both concentrations for 72 hours, significant): accumulation in G2/M phase | Effect on cell cycle kinetics, G0/G1 (Hs683 human cancer cells; Hs683, 24 h): n.s. | Effect on cell cycle kinetics, G2/M (Hs683 human cancer cells; Hs683, 24 h): *** | Effect on cell cycle kinetics, S (Hs683 human cancer cells; Hs683, 24 h): n.s. | Effect on cell cycle kinetics, G0/G1 (Hs683 human cancer cells; Hs683, 72 h): n.s. | Effect on cell cycle kinetics, G2/M (Hs683 human cancer cells; Hs683, 72 h): ** | Effect on cell cycle kinetics, S (Hs683 human cancer cells; Hs683, 72 h): n.s. | Effect on cell cycle kinetics, G0/G1 (J82 human cancer cells; J82, 24 h): n.s. | Effect on cell cycle kinetics, G2/M (J82 human cancer cells; J82, 24 h): n.s. | Effect on cell cycle kinetics, S (J82 human cancer cells; J82, 24 h): n.s. | Effect on cell cycle kinetics, G0/G1 (J82 human cancer cells; J82, 72 h): n.s. | Effect on cell cycle kinetics, G2/M (J82 human cancer cells; J82, 72 h): n.s. | Effect on cell cycle kinetics, S (J82 human cancer cells; J82, 72 h): ** | cell cycle, S-population (J82 human cancer cells; J82, only after 72 hours of treatment at both concentrations tested): increase of S-population

CC1CC2(NC(=O)CS2)C2(O)OC3CC4(CO)C(CCC5C4CCC4(C)C(C6=CC(=O)OC6)CCC54O)CC3OC2O1 (centres unmarked) [Compound B]
survival periods of MCF-7-TD5 tumor bearing mice ([2]; 60 administrations of 10 mg/kg and 5 mg/kg): not sufficient to significantly increase the survival periods | MCF-7-TD5 tumor growth ([2]; 60 administrations of 10 mg/kg and 5 mg/kg, five times a week): significantly decreased MCF-7-TD5 tumor growth | weight of MCF-7-TD5 tumor bearing mice (toxic side effects) ([2]; constant administrations, 10 mg/kg and 5 mg/kg): did not lose any significant weight | T/C value ([3]; i.p. DMT/4 (20 mg/kg), 3ix5w, from 21st day post-graft): 129% | T/C value ([3]; i.p. DMT/8 (10 mg/kb), 5ix8w, from 14th day post-graft): 127%
